From patent publication US20190233884A1 (University of Southern California, priority 2016, published 2019)

System: patients with refractory metastatic colorectal cancer (mCRC)
Assay: PFS, OS and disease control in the training (evaluation) cohort of refractory mCRC patients receiving TAS-102 (n=52, Japan), by baseline characteristics, SNP genotype and toxicity
Format: in vivo, human
Conditions: for Overall Survival Median, months / Progression-Free Survival Median, months / Overall Survival HR / Progression-Free Survival HR / HR for OS / HR for PFS: evaluation cohort
Method: All patients underwent the treatment in salvage-line setting. […]
(§1) Genomic DNA was extracted from peripheral whole blood in patients of all cohorts using the QIAmp Kit (Qiagen, Valencia, Calif., USA) according to the manufacturer's protocol (www.qiagen.com). The candidate SNPs were genotyped using PCR-based direct DNA sequence analysis by ABI 3100A Capillary Genetic Analyzer and Sequencing Scanner v1.0 (Applied Biosystems). Amplification of extracted DNA was carried out using both forward and reverse primers for each gene polymorphism as shown in Table 1. […] The investigators analyzing SNPs were blinded to the clinical data of the study patients.
The primary endpoint in this study was progression-free survival (PFS), and the secondary endpoints were overall survival (OS) and disease control rate (DCR). PFS was calculated from the date of starting treatment to the first observation of disease progression or death from any cause. If a patient had no disease progression or death, PFS was censored at the date of last follow up. OS was calculated from the date of starting treatment until the date of death from any cause or the date of the last follow-up, at which point OS was censored. The disease control rate (DCR) was defined as the proportion of patients who achieved a stable disease (SD) or […] according to RECISTv1.1. Chi-square test was used to examine the difference in baseline patient characteristics among the three cohorts. Allelic distribution of all SNPs by ethnicity for deviation from Hardy-Weinberg equilibrium and the allelic frequencies of SNPs were tested using the Chi-square tests with one degree of freedom. The associations between candidate SNPs and disease control, and toxicities were examined using contingency tables and Fisher's exact test. The associations of SNPs with PFS and OS were analysed using Kaplan-Meier curves and the log-rank test. Because the true mode of inheritance of candidate SNPs was not established yet, a codominant or dominant genetic model if appropriate was considered.
All patients underwent the treatment in salvage-line setting. […] In all patients, adverse events were graded according to the Common Terminology Criteria for Adverse Events, version 4.0. […]
as §1, with “tested” for “genotyped”, “Biosystems).” for “Biosystems). Amplification of extracted DNA was carried out using both forward and reverse primers for each gene polymorphism as shown in Table 1.”, “data.” for “data of the study patients.”
The primary endpoint in this study was progression-free survival (PFS), and the secondary endpoints were overall survival (OS) and disease control rate (DCR).

[1] = Performance status ECOG 1 vs ECOG 0, univariate
[2] = Peritoneal No vs Yes, univariate
[3] = Pre-chemo numbers ≥4 vs <4, univariate
[4] = Primary tumor resection No vs Yes, univariate
[5] = Prior EGFR No vs Yes, univariate
[6] = Prior REGORA No vs Yes, univariate
[7] = Prior bev No vs Yes, univariate
[8] = Tumor site Left vs Right, univariate
[9] = XRCC3 rs861539 G/A vs G/G, univariate
[10] = p21 rs1059234 Any C vs T/T, multivariable
[11] = p21 rs1059234 Any C vs T/T, univariate
[12] = p21 rs1059234 C/C vs T/T, multivariable
[13] = p21 rs1059234 C/C vs T/T, univariate
[14] = p21 rs1059234 T/C vs T/T, multivariable
[15] = p21 rs1059234 T/C vs T/T, univariate
[16] = p21 rs1801270 A/C vs A/A, multivariable
[17] = p21 rs1801270 A/C vs A/A, univariate

## Trifluridine/tipiracil [TAS-102]
Number of metastases ≤2
  Overall Survival Median, months: 8.3 months
  Progression-Free Survival Median, months: 2.7 months
Performance status ECOG 0
  Overall Survival Median, months: 8.7 months
  Progression-Free Survival Median, months: 2.9 months
Performance status ECOG 1
  Overall Survival Median, months: 7.2 months
  Progression-Free Survival Median, months: 2.7 months
[1]
  Overall Survival HR: 1.42
  Progression-Free Survival HR: 1.06
Peritoneal No
  Overall Survival Median, months: 8.3 months
  Progression-Free Survival Median, months: 2.3 months
[2]
  Overall Survival HR: 0.84
  Progression-Free Survival HR: 1.48
Peritoneal Yes
  Overall Survival Median, months: 6.3 months
  Progression-Free Survival Median, months: 3.1 months
Pre-chemo numbers <4
  Overall Survival Median, months: 8.7 months
  Progression-Free Survival Median, months: 3.0 months
Pre-chemo numbers ≥4
  Overall Survival Median, months: 6.3 months
  Progression-Free Survival Median, months: 2.1 months
[3]
  Overall Survival HR: 2.48
  Progression-Free Survival HR: 1.73
Primary tumor resection No
  Overall Survival Median, months: 8.1+ months
  Progression-Free Survival Median, months: 2.1 months
[4]
  Overall Survival HR: 1.72
  Progression-Free Survival HR: 1.39
Primary tumor resection Yes
  Overall Survival Median, months: 8.1 months
  Progression-Free Survival Median, months: 3.0 months
Prior EGFR No
  Overall Survival Median, months: 15.6+ months
  Progression-Free Survival Median, months: 3.7 months
[5]
  Overall Survival HR: 0.35
  Progression-Free Survival HR: 0.49
Prior EGFR Yes
  Overall Survival Median, months: 6.3 months
  Progression-Free Survival Median, months: 2.1 months
Prior REGORA No
  Overall Survival Median, months: 14.8+ months
  Progression-Free Survival Median, months: 3.7 months
[6]
  Overall Survival HR: 0.50
  Progression-Free Survival HR: 0.65
Prior REGORA Yes
  Overall Survival Median, months: 8.1 months
  Progression-Free Survival Median, months: 2.1 months
Prior bev No
  Overall Survival Median, months: 4.1 months
  Progression-Free Survival Median, months: 2.5 months
[7]
  Overall Survival HR: 3.43
  Progression-Free Survival HR: 1.86
Prior bev Yes
  Overall Survival Median, months: 8.3 months
  Progression-Free Survival Median, months: 2.9 months
Sex Female
  Overall Survival Median, months: 8.3 months
  Progression-Free Survival Median, months: 3.4 months
Sex Female vs Male, univariate
  Overall Survival HR: 0.47
  Progression-Free Survival HR: 0.60
Sex Male
  Overall Survival Median, months: 4.9 months
  Progression-Free Survival Median, months: 2.1 months
Tumor site Left
  Overall Survival Median, months: 8.1 months
  Progression-Free Survival Median, months: 2.9 months
[8]
  Overall Survival HR: 0.97
  Progression-Free Survival HR: 1.30
Tumor site Right
  Overall Survival Median, months: 8.7 months
  Progression-Free Survival Median, months: 3.3 months
XRCC3 rs861539, multivariable
  HR for OS: 0.31
  HR for PFS: 0.52
[9]
  HR for OS: 0.25
  HR for PFS: 0.44
p21 rs1059234 Any C
  OS median, months (95% CI): 12.4 (5.4, 15.6+) months
  PFS median, months (95% CI): 2.7 (2.1, 3.5) months
[10]
  OS HR (95% CI)‡: 0.50 (0.20, 1.25)
  PFS HR (95% CI) ‡: 0.74 (0.37, 1.49)
[11]
  OS HR (95% CI)†: 0.64 (0.27, 1.56)
  PFS HR (95% CI) †: 0.88 (0.44, 1.74)
p21 rs1059234 C/C
  OS median, months (95% CI): 6.3 (2.7, 10.7+) months
  PFS median, months (95% CI): 2.9 (1.6, 4.9) months
[12]
  OS HR (95% CI)‡: 0.67 (0.21, 2.12)
  PFS HR (95% CI) ‡: 0.73 (0.30, 1.74)
[13]
  OS HR (95% CI)†: 0.76 (0.25, 2.35)
  PFS HR (95% CI) †: 0.95 (0.42, 2.16)
p21 rs1059234 T/C
  OS median, months (95% CI): 12.4 (5.3, 15.6+) months
  PFS median, months (95% CI): 2.7 (2.1, 3.5) months
[14]
  OS HR (95% CI)‡: 0.42 (0.15, 1.19)
  PFS HR (95% CI) ‡: 0.75 (0.35, 1.60)
[15]
  OS HR (95% CI)†: 0.59 (0.22, 1.57)
  PFS HR (95% CI) †: 0.84 (0.40, 1.76)
p21 rs1059234 T/T
  OS median, months (95% CI): 7.2 (3.3, 8.7) months
  PFS median, months (95% CI): 3.3 (1.6, 4.1) months
p21 rs1801270 A/A
  OS median, months (95% CI): 7.2 (3.3, 8.7) months
  PFS median, months (95% CI): 3.3 (1.6, 4.1) months
p21 rs1801270 A/C
  OS median, months (95% CI): 12.4 (5.3, 15.6+) months
  PFS median, months (95% CI): 2.3 (1.8, 3.5) months
[16]
  OS HR (95% CI)‡: 0.39 (0.13, 1.11)
  PFS HR (95% CI) ‡: 0.72 (0.34, 1.55)
[17]
  OS HR (95% CI)†: 0.53 (0.19, 1.47)
  PFS HR (95% CI) †: 0.82 (0.39, 1.74)
p21 rs1801270 Any C
  OS median, months (95% CI): 12.4 (5.4, 15.6+) months
  PFS median, months (95% CI): 2.7 (2.1, 3.5) months
p21 rs1801270 Any C vs A/A, multivariable
  OS HR (95% CI)‡: 0.50 (0.20, 1.25)
